These results are taken from patent publication US20250368638A1, “BICYCLIC INHIBITORS OF NICOTINAMIDE […], COMPOSITIONS AND USES THEREOF” (President and Fellows of Harvard College, priority 2021, published 2025).

Each structure is given as a SMILES string.

In one data set the test system is K562 (ATCC) cells. Briefly: Cellular potency: 1-MNA levels in K562 cells after compound incubation. The following applies: Homo sapiens, 24 h incubation. It counts as cell-based. As to the method:
Cellular potency was measured in K562 (ATCC) cells via measuring (1-methyl nicotinamide) 1-MNA levels after compound incubation at varying concentrations overnight. Cells were plated at 1 million per well and were incubated for 24 h with compounds at indicated concentrations. Cells were collected by pipetting and extracted with 200 ul acetonitrile containing internal deuterated standard 10 ng/ml d4-1-MNA. Samples were analyzed on an Agilent 64-60 Triple Quad LC/MS with Agilent 1290 Infinity HPLC using a Restek Allure 5 um PPFP column 150 mm×2.1. The mobile phase A was 2.5 mM ammonium formate in water, and mobile phase B was methanol with 0.1% formic acid, delivered at 0.25 mL/min. The capillary voltage was set to 2400V and the nozzle at 300V. The drying gas temperature was 240° C., the drying gas flow rate was 4 L/min, and the nebulizer pressure was 40 psi. The mass spectrometer was run in multiple reaction monitoring mode. Mass transitions were m/z 137.1 à 94.1 for 1-MNA and m/z 141.1 à 98.1 for d4-MNA.

The target in another data set is hERG (Homo sapiens, UniProt Q12809). Briefly: hERG safety evaluation by manual Patch-Clamp system. The format is cell-based. As to the method: Cell lines and cell culture: hERG stably expressed HEK 293 cell line (Cat #K1236) was purchased from Invitrogen. The cells are cultured in 85% DMEM, 10% dialyzed FBS, 0.1 mM NEAA, 25 mM HEPES, 100 U/mL Penicillin-Streptomycin, 5 μg/mL Blasticidin and 400 μg/mL Geneticin. Cells are split using TrypLE™ Express about three times a week, and maintained between ˜40% to ˜80% confluence. Before the assay, the cells were onto the coverslips at 5×10^5 cells/per 6 cm cell culture dish and induced with doxycycline at 1 μg/mL for 48 hours.
[…]; 2) Intracellular solution (in mM): 140 KCl, 2 MgCl2, 10 EGTA, 10 HEPES and 5 MgATP (pH adjusted to 7.35 with KOH).
Experimental procedure: 1) Remove the coverslip from the cell culture dish and place it on the microscope stage in bath chamber; 2) Locate a desirable cell using the ×10 objective. Locate the tip of the electrode under the microscope using the ×10 objective by focusing above the plane of the cells. […]
Data analysis: Data that met the above criteria for hERG current quality were further analyzed as the following steps: 1) Percent hERG current inhibition was calculated using the following equation; 2) The dose response curve of test compounds was plotted with percentage of hERG current inhibition against the concentration of test compounds using Graphpad Prism 8.0, and fit to a sigmoid dose-response curve with a variable slope.
(hERG is a cardiac potassium channel; its block is linked to QT prolongation.)

Data set [1] has as its system Ion Channels, GPCR, Transporter, Kinases, Enzyme and Nuclear Hormone Receptor. In words: Off-target safety panel screening. The following applies: at 10 μM. The procedure:
An off-target safety panel screening for 11 was conducted. The class of target teste included Ion Channels, GPCR, Transporter, Kinases, Enzyme and Nuclear Hormone Receptor.

Sequence of hERG (Q12809 whole entry): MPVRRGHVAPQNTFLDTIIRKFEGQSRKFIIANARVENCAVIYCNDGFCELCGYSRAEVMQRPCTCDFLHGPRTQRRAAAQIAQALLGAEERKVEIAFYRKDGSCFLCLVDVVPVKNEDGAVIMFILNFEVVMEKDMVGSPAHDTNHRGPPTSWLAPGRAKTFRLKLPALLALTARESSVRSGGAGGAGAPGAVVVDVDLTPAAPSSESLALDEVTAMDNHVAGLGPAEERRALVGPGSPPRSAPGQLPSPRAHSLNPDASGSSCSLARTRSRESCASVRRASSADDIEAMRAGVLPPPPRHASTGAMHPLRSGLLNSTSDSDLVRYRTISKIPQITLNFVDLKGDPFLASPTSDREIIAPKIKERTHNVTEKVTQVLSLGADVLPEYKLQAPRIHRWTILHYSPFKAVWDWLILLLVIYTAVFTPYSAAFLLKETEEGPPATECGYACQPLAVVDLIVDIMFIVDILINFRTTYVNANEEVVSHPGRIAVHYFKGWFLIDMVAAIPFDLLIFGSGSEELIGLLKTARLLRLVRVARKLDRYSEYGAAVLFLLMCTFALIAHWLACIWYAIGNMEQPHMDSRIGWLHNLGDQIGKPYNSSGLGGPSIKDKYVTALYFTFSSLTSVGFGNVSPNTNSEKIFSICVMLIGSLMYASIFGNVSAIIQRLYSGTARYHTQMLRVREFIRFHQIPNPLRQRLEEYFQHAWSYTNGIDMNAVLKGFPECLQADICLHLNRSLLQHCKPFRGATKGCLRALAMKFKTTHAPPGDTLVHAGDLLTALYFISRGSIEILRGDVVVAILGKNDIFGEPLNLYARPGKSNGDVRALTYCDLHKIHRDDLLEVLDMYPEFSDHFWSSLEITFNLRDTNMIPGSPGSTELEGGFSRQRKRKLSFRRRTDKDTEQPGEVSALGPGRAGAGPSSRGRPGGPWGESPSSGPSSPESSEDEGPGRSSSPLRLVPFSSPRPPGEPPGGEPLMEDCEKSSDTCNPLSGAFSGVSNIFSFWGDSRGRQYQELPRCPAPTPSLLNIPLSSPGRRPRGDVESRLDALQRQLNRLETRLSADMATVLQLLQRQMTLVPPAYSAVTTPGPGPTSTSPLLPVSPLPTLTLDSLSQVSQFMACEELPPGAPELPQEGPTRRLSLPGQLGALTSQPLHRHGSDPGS

In the case of `C[C@@H]1Cc2cc(C(N)=O)cnc2N1` [Compound 11, (2R)-2-methyl-2,3-dihydro-1H-pyrrolo[2,3-b]pyridine-5-carboxamide], the IC50 (commonly the concentration that inhibits the measured activity by half) was 38 nM in the data set on K562 (ATCC) cells and above 30000 nM against hERG (manual Patch-Clamp, hERG stably expressed HEK 293 cell line). For the same compound, the inhibition (usually the drop in the measured response relative to a control, in per cent) at 5 min, 30 µM on hERG (human, HEK293 cells stably expressing hERG, pH 7.35, at 30 μM) was found to be 15%. The Off-target activity entry in data set [1] is “did not show significant off-target activity”.
